Literature values in US10716758B2, “Liposomal statin formulation” (Southwest Research Institute, priority 2018, dated 2020).

Experiments:
[1] = tested on: scar, rabbit ear model; conditions: relatively low doses (40 μM)
[2] = 20° C. to 25° C.

| solubility in water (in words) [2] | Compound | scar elevation index vs control [1] |
| --- | --- | --- |
| – | CC[C@H](C)C(=O)O[C@H]1C[C@@H](C)C=C2C=C[C@H](C)[C@H](CC[C@@H]3C[C@@H](O)CC(=O)O3)[C@H]21 [lovastatin] | reduction in the scar elevation index |
| soluble in water | CC[C@H](C)C(=O)O[C@H]1C[C@H](O)C=C2C=C[C@H](C)[C@H](CC[C@@H](O)C[C@@H](O)CC(=O)O)[C@H]21 [pravastatin] | – |
